Measured values taken from paper PMC7932537, “Quantitative profiling of protease specificity” (PLoS Computational Biology, 2021).

Experiments:
MMP-2 = target: T1, MMP-2 (Homo sapiens, UniProt P08253); assay: K(obs) of individual phage substrates (set of 1369); assay type: biochemical; details: MMP2
T1 sequence (P08253 110-660): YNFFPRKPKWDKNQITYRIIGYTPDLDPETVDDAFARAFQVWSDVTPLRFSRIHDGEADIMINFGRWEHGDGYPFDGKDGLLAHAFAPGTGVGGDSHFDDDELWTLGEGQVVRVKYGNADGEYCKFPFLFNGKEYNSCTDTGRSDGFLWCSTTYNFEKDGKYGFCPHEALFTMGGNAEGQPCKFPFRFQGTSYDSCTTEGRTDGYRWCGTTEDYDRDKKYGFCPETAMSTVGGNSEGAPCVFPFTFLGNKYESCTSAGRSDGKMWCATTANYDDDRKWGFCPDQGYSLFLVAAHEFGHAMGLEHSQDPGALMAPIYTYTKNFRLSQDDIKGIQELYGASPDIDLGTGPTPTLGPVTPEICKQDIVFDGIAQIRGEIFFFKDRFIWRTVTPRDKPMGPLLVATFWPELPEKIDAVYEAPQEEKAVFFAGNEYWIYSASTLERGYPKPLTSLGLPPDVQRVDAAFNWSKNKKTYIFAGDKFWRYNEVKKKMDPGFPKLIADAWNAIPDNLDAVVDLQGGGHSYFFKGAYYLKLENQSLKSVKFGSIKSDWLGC

MMP-9 = MMP-9 (Homo sapiens, UniProt P14780); assay: as above; assay type: biochemical; details: MMP9, individual phage substrates, set of 1369 peptides
Sequence of MMP-9 (P14780 94-707): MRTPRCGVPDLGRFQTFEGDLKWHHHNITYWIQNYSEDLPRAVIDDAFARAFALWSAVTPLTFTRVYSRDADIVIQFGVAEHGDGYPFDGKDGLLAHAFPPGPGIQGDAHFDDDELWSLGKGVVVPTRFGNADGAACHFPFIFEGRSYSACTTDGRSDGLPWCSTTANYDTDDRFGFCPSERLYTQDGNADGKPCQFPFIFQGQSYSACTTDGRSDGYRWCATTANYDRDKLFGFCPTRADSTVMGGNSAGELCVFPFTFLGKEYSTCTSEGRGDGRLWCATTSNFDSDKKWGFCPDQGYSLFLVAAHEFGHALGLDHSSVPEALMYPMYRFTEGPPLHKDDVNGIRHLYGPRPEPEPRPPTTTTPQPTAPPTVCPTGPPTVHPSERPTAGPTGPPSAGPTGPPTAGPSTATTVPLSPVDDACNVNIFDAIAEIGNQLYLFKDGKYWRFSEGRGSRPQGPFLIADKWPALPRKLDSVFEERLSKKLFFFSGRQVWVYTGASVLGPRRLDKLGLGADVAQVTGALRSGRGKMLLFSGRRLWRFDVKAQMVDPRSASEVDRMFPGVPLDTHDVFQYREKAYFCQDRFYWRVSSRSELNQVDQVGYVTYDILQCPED

[1] = individual phage substrate from the set of 1369 peptides, cleavage position marked by the dash in the sequence
[2] = dash in sequence marks cleavage position
[3] = individual phage substrates, set of 1369 peptides, cleavage position marked by '-' in the sequence
[4] = '-' marks the cleavage position (P1-P1')

| Kobs (MMP-2; [1]) [M⁻¹ s⁻¹] | Kobs (MMP-9; [2]) [M⁻¹ s⁻¹] | Kobs (MMP-2; [3]) [M⁻¹ s⁻¹] | Kobs (MMP-9; [4]) [M⁻¹ s⁻¹] | Substance |
| --- | --- | --- | --- | --- |
| 10866.7 | 1239.69 |  |  | SPAHG-LTASG |
|  |  | 1071.29 | 2837.92 | AVTYA-LTASG |
| 7015.91 | 1373.05 |  |  | YYASH-LTASG |
|  |  | 0 | 0 | GSGAK-LIVRT |
|  |  | 0 | 84.609 | GSGFQ-LRVFT |
| 0 | 0 |  |  | GGSGS-LTFNT |
| 0 | 0 |  |  | GNADL-IMTAS |
|  |  | 1196.62 | 12792.1 | SGYLP-LLYTA |
| 113.394 | 386.839 |  |  | YKAFT-MTASG |
|  |  | 12792.1 | 12792.1 | LVVAA-LTASG |
| 142.481 | 517.582 |  |  | SGAGR-LRATA |
|  |  | 10866.7 | 10866.7 | HGPMS-LTASG |
|  |  | 5889.62 | 3964.21 | SGPSN-MLRTA |
| 0 | 0 |  |  | SGSYP-LTRTA |
|  |  | 10866.7 | 4205.91 | SVARN-LTASG |
|  |  | 12792.1 | 113.394 | IMMAY-LTASG |
| 551.253 | 0 |  |  | GRASR-LVTAS |
| 12792.1 | 12792.1 |  |  | MVVRH-LTASG |
| 4470.66 | 2476.66 |  |  | YSPSL-ITASG |
|  |  | 3850.82 | 2280.5 | GRVLH-LRTAS |
|  |  | 0 | 1465.65 | SGPKQ-LTRTA |
|  |  | 1870.4 | 0 | GHLAS-QRTAS |
|  |  | 726.013 | 0 | SGVNS-LRRTA |
| 0 | 0 |  |  | SGSAR-LTLTA |
|  |  | 12792.1 | 0 | WHFGA-LTASG |
|  |  | 2038.8 | 56.119 | IVNAR-LTASG |
|  |  | 12792.1 | 12792.1 | GAPSS-LRTAS |
|  |  | 0 | 0 | SGLAK-LTVTA |

More lines, now with the values behind:

| Substance | Kobs (MMP-2; [1]) [M⁻¹ s⁻¹] | Kobs (MMP-9; [2]) [M⁻¹ s⁻¹] | Kobs (MMP-2; [3]) [M⁻¹ s⁻¹] | Kobs (MMP-9; [4]) [M⁻¹ s⁻¹] |
| --- | --- | --- | --- | --- |
| GKTWA-LTASG |  |  | 323.705 | 912.511 |
| PVVWW-QTASG |  |  | 836.403 | 5461.43 |
| VKVWG-LTASG | 5461.43 | 8321.48 |  |  |
| LGWSS-LTASG | 3344.37 | 0 |  |  |
| GSALA-LTTAS |  |  | 619.843 | 1196.62 |
| SGGSG-LRMWI |  |  | 484.315 | 1239.69 |
| SMPRM-LTASG |  |  | 12792.1 | 10866.7 |
| SYMFS-LTASG |  |  | 56.119 | 113.394 |
| NKTAW-LTASG |  |  | 7386.83 | 799.117 |
| SGAFS-LMRTA |  |  | 323.705 | 451.441 |
| GYYGE-LLTAS |  |  | 990.764 | 27.918 |
| GVAGA-LYTAS |  |  | 2097.28 | 0 |
| GKPLP-WTASG |  |  | 6131.32 | 5889.62 |
| GTLLD-LITAS |  |  | 0 | 0 |
| SGGRN-LTATA | 12792.1 | 7815.03 |  |  |
| GHPWL-QRTAS |  |  | 0 | 56.119 |
| GAPAF-LKTAS |  |  | 12792.1 | 10866.7 |
| RVLSR-LTASG |  |  | 8941.32 | 0 |
| ISPAT-LTASG |  |  | 12792.1 | 12792.1 |
| GGSGR-LMYER | 0 | 0 |  |  |
| SGMLS-LVITA |  |  | 0 | 0 |
| KVLAS-LTASG | 10866.7 | 0 |  |  |
| GKPQN-LRTAS | 12792.1 | 12792.1 |  |  |
| SGLWT-LMATA |  |  | 0 | 0 |
| GEVWR-LHTAS | 56.119 | 0 |  |  |
| YTMLH-LTASG | 726.013 | 0 |  |  |

| Substance | Kobs (MMP-2; [1]) [M⁻¹ s⁻¹] | Kobs (MMP-9; [2]) [M⁻¹ s⁻¹] | Kobs (MMP-2; [3]) [M⁻¹ s⁻¹] | Kobs (MMP-9; [4]) [M⁻¹ s⁻¹] |
| --- | --- | --- | --- | --- |
| SLYRA-LTASG |  |  | 7386.83 | 5667.28 |
| SGPHL-LIRTA |  |  | 0 | 386.839 |
| IFINF-LTASG |  |  | 10866.7 | 323.705 |
| DYARA-MTASG | 4082.43 | 3438.54 |  |  |
| SGVRA-LISTA |  |  | 12792.1 | 12792.1 |
| SGYAG-LRQTA |  |  | 231.616 | 0 |
| EAVGN-LTASG | 12792.1 | 585.336 |  |  |
| VSISF-LTASG |  |  | 12792.1 | 654.784 |
| GGSGQ-LLATK | 619.843 | 0 |  |  |
| GLPQA-LLTAS |  |  | 12792.1 | 12792.1 |
| GSAHL-LLTAS |  |  | 27.918 | 0 |
| CCAMG-LTASG |  |  | 2218.08 | 4470.66 |
| WVANM-ITASG |  |  | 7386.83 | 1513.13 |
| KPVSA-LTASG | 12792.1 | 551.253 |  |  |
| GGSGQ-LLLRN |  |  | 0 | 0 |
| GVLHS-LRTAS |  |  | 0 | 0 |
| GQPNF-LTASG | 2157.02 | 1283.43 |  |  |
| GRAWM-MVTAS | 0 | 27.918 |  |  |
| GGASG-LMTAS |  |  | 451.441 | 84.609 |
| GVVHS-FCTAS |  |  | 0 | 0 |
| VDHAH-LTASG |  |  | 5269.78 | 0 |
| MVPSA-LTASG |  |  | 7015.91 | 8941.32 |
| GRASA-LNTAS |  |  | 517.582 | 0 |
| GISMY-LTASG |  |  | 690.17 | 0 |
| GKVRN-LTTAS |  |  | 10866.7 | 8321.48 |
| GMYLN-LKTAS |  |  | 0 | 0 |
